In ChEMBL document CHEMBL1201862, “PubChem BioAssay data set” (2004):
Calls of active or inactive are those of the source.

How the values were obtained:
[1] = Luminescent dose response cell-based high throughput screening assay for inhibitors of the Janus kinase 2 mutant JAK2V617F. [Related pubchem assays: 1446 (Primary screen.), 1521 (Confirmation assay.), 1486 (Counter screen.)]; type: functional
Prothrombin = Prothrombin (Homo sapiens, UniProt P00734); experiment: Thrombin 1536 HTS Dose Response Confirmation. [Related pubchem assays: 1046 (Thrombin 1536 HTS; hits were confirmed in this assay)]; type: functional
[2] = target: T1, Sphingosine 1-phosphate receptor 4 (Homo sapiens, UniProt O95977); experiment: Fluorescence dose response cell-based high throughput screening assay for antagonists of the Sphingosine 1-Phosphate Receptor 4 (S1P4). [Related pubchem assays: 1524 (Confirmation in triplicates.), 1510 (Primary screen.)]; type: functional
T1 sequence (O95977 whole entry): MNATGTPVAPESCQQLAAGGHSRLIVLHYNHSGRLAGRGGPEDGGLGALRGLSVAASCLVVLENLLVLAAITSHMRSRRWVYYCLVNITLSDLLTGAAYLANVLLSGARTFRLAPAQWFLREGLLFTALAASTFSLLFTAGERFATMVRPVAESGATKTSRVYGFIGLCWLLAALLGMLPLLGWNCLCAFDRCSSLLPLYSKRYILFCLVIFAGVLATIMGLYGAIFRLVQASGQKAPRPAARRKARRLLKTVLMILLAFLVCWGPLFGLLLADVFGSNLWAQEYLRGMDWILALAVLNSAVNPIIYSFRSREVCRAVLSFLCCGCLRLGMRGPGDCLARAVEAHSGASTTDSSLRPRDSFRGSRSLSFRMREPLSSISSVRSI

[3] = target: Sphingosine 1-phosphate receptor 1 (Homo sapiens, UniProt P21453); type: functional;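 also: Tango beta-arrestin reporter U2OS cells stimulated with S1P near its EC80; inhibitor potency meaning antagonism of receptor activation by the natural agonist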
[4] = target: T2, Replicative DNA helicase DnaB (Mycobacterium tuberculosis, UniProt P9WMR3); experiment: DnaB intein splicing inhibitors, dose response, biochemical, cell-free fluorescence (AID 449749); type: functional
T2 sequence (P9WMR3 whole entry): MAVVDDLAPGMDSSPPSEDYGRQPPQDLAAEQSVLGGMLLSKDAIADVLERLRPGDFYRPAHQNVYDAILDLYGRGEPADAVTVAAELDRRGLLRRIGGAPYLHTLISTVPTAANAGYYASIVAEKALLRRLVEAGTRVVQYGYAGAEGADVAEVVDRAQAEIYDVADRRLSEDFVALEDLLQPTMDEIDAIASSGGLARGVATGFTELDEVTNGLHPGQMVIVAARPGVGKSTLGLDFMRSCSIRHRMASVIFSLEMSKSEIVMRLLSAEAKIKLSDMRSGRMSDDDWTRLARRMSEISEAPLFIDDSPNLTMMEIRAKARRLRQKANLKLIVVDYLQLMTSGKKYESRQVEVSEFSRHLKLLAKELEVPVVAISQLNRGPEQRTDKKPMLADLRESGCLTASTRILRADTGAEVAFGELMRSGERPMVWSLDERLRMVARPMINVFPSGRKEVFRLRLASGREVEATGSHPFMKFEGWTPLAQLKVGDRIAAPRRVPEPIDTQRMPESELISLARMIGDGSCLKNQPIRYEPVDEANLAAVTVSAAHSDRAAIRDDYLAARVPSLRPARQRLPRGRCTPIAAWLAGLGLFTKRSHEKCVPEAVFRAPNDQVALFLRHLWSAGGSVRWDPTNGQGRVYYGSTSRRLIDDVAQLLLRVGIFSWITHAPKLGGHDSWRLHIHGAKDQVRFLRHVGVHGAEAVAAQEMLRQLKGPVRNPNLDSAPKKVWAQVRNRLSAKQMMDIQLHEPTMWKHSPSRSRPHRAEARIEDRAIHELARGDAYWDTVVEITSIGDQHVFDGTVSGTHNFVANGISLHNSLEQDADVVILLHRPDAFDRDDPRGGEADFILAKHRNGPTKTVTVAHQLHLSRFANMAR

Protein RecA = target: T3, Protein RecA (Mycobacterium tuberculosis, UniProt P9WHJ3); experiment: Fluorescence Cell-Free Homogeneous Dose Retest to Identify Inhibitors of RecA-Intein Splicing Activity. [Related pubchem assays (depositor defined):AID2097, AID2223, AID489010, AID492950]; type: functional
T3 sequence (P9WHJ3 whole entry): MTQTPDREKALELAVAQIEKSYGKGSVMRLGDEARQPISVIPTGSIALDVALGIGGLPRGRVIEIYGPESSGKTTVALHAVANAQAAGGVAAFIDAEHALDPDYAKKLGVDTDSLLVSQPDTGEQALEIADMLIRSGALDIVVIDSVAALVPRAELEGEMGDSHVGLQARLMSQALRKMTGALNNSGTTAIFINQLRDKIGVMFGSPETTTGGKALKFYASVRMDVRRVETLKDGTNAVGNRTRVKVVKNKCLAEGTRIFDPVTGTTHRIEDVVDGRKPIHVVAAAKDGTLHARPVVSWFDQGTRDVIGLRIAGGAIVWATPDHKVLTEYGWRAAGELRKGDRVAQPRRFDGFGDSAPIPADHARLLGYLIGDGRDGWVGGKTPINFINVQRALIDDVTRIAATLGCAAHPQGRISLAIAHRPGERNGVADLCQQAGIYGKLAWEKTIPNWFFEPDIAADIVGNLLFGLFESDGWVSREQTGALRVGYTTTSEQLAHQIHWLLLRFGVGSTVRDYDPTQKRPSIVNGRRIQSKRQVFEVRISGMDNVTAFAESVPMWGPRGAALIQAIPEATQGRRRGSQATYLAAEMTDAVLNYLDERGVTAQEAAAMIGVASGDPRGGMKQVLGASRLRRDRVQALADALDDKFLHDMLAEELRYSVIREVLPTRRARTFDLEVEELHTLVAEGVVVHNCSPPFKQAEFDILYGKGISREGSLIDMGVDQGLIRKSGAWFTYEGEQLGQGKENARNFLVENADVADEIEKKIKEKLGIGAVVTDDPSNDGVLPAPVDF

Leucine aminopeptidase = target: T4, Leucine aminopeptidase (Plasmodium falciparum 3D7, UniProt Q8IL11); experiment: P. falciparum M17LAP inhibitors, primary screen, biochemical, fluorogenic H-Leu-NHMec substrate, 1536-well (AID 1619); type: functional
T4 sequence (Q8IL11 whole entry): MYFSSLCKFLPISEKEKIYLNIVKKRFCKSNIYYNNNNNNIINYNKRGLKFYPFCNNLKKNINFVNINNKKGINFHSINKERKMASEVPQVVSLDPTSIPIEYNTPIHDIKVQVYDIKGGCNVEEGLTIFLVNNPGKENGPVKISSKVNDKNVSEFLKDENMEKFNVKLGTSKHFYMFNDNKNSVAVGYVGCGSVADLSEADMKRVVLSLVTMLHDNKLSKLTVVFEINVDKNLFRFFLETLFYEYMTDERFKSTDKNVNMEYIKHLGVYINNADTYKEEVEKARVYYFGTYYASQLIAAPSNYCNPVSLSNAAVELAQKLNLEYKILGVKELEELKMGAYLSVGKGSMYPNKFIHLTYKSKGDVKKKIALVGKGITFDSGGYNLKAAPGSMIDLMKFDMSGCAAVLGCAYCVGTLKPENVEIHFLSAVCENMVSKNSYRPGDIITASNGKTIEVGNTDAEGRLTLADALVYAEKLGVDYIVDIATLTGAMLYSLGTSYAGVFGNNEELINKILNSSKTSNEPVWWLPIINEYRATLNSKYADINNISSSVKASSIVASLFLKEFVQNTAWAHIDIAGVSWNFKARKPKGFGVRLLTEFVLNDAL

Aspartyl aminopeptidase = target: T5, Aspartyl aminopeptidase (Plasmodium falciparum 3D7, UniProt Q8I2J3); experiment: Counterscreen for inhibitors of M1 and M17 aminopeptidases: QFRET-based biochemical high throughput dose response assay for inhibitors of the Plasmodium falciparum M18 Aspartyl Aminopeptidase (PFM18AAP). [Related PubChem assays: 1619 (Screening assay (M17LAP inhibitors).), 1445 (Screening assay (M1AAP inhibitors).)]
T5 sequence (Q8I2J3 whole entry): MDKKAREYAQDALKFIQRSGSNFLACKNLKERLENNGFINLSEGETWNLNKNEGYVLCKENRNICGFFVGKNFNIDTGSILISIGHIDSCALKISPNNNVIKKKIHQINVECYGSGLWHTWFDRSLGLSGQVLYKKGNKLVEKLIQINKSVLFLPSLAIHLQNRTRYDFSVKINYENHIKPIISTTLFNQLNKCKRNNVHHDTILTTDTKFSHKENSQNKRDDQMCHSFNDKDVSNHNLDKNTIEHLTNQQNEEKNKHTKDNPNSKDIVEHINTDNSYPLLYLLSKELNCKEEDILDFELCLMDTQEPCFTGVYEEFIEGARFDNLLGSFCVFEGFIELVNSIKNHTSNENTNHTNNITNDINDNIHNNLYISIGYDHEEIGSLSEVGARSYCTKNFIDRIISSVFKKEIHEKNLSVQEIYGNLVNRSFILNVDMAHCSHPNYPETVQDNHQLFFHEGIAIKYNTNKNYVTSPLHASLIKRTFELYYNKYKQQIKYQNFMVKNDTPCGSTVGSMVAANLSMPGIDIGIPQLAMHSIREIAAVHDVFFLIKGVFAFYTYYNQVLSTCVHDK

Procathepsin L = Procathepsin L (Homo sapiens, UniProt P07711); experiment: cathepsin L inhibitors, dose response, counter-screen for M1/M17 aminopeptidase inhibitor project, biochemical, QFRET, 1536-well (AID 2214)
Estrogen receptor = target: T6, Estrogen receptor (Homo sapiens, UniProt P03372); experiment: potentiators of ERα–SRC-1 coactivator binding, dose response, biochemical, TR-FRET, ERα LBD (AID 737)
T6 sequence (P03372 whole entry): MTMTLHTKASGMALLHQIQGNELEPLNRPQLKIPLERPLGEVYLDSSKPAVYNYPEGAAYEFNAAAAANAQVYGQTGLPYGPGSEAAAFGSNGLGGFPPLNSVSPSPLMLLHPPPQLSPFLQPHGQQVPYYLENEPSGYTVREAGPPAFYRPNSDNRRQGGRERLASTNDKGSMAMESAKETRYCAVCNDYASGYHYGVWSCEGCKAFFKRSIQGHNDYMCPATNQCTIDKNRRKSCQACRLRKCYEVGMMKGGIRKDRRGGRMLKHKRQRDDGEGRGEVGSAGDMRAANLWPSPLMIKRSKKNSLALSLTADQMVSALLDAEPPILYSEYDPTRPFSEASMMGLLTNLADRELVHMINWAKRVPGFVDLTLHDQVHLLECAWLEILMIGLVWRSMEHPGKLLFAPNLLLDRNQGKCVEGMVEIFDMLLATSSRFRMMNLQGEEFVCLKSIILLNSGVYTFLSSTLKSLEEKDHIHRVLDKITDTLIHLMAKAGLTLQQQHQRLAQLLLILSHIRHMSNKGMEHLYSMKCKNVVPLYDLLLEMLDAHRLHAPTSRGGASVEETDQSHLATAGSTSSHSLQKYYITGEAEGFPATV

[5] = target: Epstein-Barr nuclear antigen 1 (Epstein-Barr virus (strain B95-8) (HHV-4) (Human herpesvirus 4), UniProt P03211); experiment: EBNA-1 inhibitors, dose response, biochemical, fluorescence polarization, 1536-well (AID 2381); set-up: species or system human gammaherpesvirus 4;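 also: fluorescence polarization of a Cy5 DNA probe bound by EBNA-1 protein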
[6] = target: Lytic switch protein BZLF1 (Epstein-Barr virus (strain B95-8) (HHV-4) (Human herpesvirus 4), UniProt P03206); experiment: EBV ZTA inhibitors, dose response, counter-screen for EBNA-1 inhibitor project, biochemical, fluorescence polarization, Epstein-Barr virus, 1536-well (AID 2377); set-up: species or system human gammaherpesvirus 4;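 also: fluorescence polarization of Cy5-labelled ZRE DNA probe bound by purified Zta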
[7] = target: T7, Polyadenylate-binding protein 1 (Homo sapiens, UniProt P11940); experiment: PABP1 MLLE–PAM2 interaction inhibitors, dose response, miRNA deadenylation inhibitor project, biochemical, fluorescence polarization, Cy5-PAM2 peptide, secondary (AID 602260); type: functional; settings: read-out: IC50_Mean
[8] = target: T7, Polyadenylate-binding protein 1; experiment: PABP1 MLLE–PAM2 binding inhibitor potency, dose response, biochemical, fluorescence polarization, FITC-PAM2 peptide (AID 602259); type: functional; settings: read-out: IC50_Mean
[9] = THP-1 cell cytotoxicity, dose response, cytotoxicity control for Vif-APOBEC3G degradation inhibitor project, THP-1 cells (AID 1117359); type: functional; settings: Human immunodeficiency virus 1, THP-1
[10] = inhibitors of Vif binding to APOBEC3G peptide, primary screen, biochemical, TR-FRET, GST-Vif 1-94, biotin-A3G peptide, dose response retest (AID 1117319); type: functional;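 also: TR-FRET signal of purified GST-Vif binding a biotinylated A3G peptide; inhibitors lower the FRET signal by blocking Vif and A3G binding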

T7 sequence (P11940 whole entry): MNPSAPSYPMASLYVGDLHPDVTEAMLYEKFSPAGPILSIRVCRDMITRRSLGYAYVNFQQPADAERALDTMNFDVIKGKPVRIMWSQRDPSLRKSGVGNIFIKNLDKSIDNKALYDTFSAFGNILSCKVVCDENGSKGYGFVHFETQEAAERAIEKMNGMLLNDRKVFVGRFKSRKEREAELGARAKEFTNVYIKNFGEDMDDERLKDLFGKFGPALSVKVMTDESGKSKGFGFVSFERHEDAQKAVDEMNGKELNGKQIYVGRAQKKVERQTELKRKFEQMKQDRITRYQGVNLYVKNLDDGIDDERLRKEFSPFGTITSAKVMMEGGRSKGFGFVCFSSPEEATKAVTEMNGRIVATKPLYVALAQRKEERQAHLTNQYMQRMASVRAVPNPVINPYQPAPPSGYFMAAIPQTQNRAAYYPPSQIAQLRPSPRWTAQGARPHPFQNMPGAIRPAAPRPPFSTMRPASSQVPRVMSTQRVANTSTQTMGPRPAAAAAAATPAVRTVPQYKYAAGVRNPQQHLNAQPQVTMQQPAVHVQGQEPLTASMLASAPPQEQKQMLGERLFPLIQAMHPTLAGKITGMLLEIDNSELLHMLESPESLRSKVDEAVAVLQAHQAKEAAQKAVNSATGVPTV
Epstein-Barr nuclear antigen 1, sequence (P03211 whole entry): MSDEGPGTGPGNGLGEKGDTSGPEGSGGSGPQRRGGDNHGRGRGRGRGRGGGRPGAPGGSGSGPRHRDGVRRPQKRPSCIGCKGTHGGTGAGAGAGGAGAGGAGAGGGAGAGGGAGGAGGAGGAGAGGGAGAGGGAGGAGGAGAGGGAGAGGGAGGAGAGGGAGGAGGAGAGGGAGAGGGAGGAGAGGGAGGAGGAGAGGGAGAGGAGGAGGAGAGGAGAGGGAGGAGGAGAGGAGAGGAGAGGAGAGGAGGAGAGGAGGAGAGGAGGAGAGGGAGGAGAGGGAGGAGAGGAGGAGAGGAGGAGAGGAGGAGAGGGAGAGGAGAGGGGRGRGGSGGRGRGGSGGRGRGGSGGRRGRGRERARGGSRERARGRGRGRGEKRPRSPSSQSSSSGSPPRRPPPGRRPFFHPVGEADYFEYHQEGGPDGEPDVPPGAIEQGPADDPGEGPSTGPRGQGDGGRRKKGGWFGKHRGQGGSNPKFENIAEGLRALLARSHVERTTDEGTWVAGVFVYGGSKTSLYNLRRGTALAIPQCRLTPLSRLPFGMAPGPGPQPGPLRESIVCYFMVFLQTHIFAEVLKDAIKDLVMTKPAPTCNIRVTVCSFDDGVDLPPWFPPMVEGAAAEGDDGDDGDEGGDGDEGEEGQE
Procathepsin L, sequence (P07711 whole entry, the tested form may be a part): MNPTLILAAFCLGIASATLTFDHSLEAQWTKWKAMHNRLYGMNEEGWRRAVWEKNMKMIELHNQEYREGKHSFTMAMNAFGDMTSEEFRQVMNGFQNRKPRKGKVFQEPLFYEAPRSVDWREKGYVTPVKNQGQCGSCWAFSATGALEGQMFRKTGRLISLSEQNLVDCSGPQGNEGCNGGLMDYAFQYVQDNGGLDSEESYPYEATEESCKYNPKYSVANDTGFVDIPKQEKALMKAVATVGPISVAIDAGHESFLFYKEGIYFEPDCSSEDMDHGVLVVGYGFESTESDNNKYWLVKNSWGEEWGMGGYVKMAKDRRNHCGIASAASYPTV
Lytic switch protein BZLF1, sequence (P03206 whole entry): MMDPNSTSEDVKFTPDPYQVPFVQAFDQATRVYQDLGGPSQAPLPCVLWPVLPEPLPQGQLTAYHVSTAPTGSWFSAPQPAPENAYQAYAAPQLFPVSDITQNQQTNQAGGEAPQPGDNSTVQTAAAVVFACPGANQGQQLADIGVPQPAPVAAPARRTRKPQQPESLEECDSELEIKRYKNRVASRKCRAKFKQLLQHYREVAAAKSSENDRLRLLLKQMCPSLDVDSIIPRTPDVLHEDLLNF
Sphingosine 1-phosphate receptor 1, sequence (P21453 whole entry): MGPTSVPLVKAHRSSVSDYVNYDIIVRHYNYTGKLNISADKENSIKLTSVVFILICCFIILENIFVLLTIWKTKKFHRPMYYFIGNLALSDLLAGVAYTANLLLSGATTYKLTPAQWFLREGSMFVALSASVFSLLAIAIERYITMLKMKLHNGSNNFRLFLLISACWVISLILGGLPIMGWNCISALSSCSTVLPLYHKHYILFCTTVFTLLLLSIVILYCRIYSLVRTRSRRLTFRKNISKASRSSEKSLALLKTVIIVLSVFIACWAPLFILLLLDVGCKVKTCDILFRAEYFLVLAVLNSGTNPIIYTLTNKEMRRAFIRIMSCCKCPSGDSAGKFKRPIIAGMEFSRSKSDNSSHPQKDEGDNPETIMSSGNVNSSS

Question: For `CCC(C)[C@@H](NC(=O)OC(C)(C)C)c1nnc(S(=O)(=O)Cc2cccc(C)c2)o1` (some centres not stated), which IC50 [1] is on record?
Answer: 0.826 µM (active)

Question: What about the IC50 (Prothrombin) of the same compound?
Answer: 3.23 µM (active)

Question: What about the IC50 [2] of the same compound?
Answer: 2.61 µM (active)

Question: What about the IC50 [3] of the same compound?
Answer: > 49.8 µM (not active)

Question: And the AC50 [4]?
Answer: 2.31 µM (active)

Question: What about the EC50 (Protein RecA) of the same compound?
Answer: 2.5 µM (active)

Question: With `COc1cc(NC(=O)CSc2nc3cc(C)ccc3cc2C)c(C(=O)O)cc1OC` as the compound, how does the IC50 (Leucine aminopeptidase) read?
Answer: 1.93 µM (active)

Question: What about the IC50 (Aspartyl aminopeptidase) of the same compound?
Answer: > 73.5 µM (not active)

Question: And the IC50 (Procathepsin L)?
Answer: > 59.6 µM (not active)

Question: With `CCOC(=O)c1c(C)[nH]c(C)c1C(=O)CSc1nnc(-c2cc(OC)c(OC)c(OC)c2)o1` as the compound, how does the EC50 (Estrogen receptor) read?
Answer: 12.5 µM (active)

Question: Which results are given for `COc1cc(NC(=O)COC(=O)/C=C/c2ccc(Cl)cc2Cl)cc(OC)c1`?
Answer: IC50 [5]: 16.1 µM (not active); IC50 [6]: > 111 µM (not active)

Question: For `O=C(N/C(=C/c1ccc(Br)cc1)c1nc2ccccc2[nH]1)c1ccco1`, which IC50 [5] is on record?
Answer: 20 µM (not active)

Question: What about the IC50 [6] of the same compound?
Answer: 111 µM (not active)

Question: Which results are given for `Cc1c(O)n(-c2ccc(F)cc2)c(SCC(=O)Nc2ccc3c4c(cccc24)CC3)nc1=O`?
Answer: IC50 (Leucine aminopeptidase): 6.36 µM (active); IC50 (Aspartyl aminopeptidase): > 73.5 µM (not active); IC50 (Procathepsin L): > 59.6 µM (not active); IC50 [7]: > 66 µM (inactive); IC50 [8]: > 66 µM (inactive); CC50 [9]: > 40 µM (active); IC50 [10]: > 100 µM (active)

Question: For `COc1cccc(-c2cc(C(=O)Nc3cc(C)nn3-c3ccccc3)no2)c1`, which EC50 (Estrogen receptor) is on record?
Answer: 12 µM (active)
